Measured values taken from article PMC5509550, “Development of a Novel Lead that Targets M. tuberculosis Polyketide Synthase 13” (Cell, 2017).
In brackets after ≈: the same amount, converted by molar mass. Where two headings read alike, the source gives them in different places.

Tests used:
M. tuberculosis H37Rv = test system: M. tuberculosis H37Rv; set-up: species or system Mycobacterium tuberculosis; conditions: in vivo
M. tuberculosis Erdman [1] = test system: M. tuberculosis Erdman; set-up: species or system Mycobacterium tuberculosis; conditions: in vivo
CYP2C9 = CYP2C9 (Homo sapiens, UniProt P11712); assay: biochemical
CYP1A2 = target: T1, CYP1A2 (Homo sapiens, UniProt P05177); assay: biochemical
T1 sequence (P05177 1-516): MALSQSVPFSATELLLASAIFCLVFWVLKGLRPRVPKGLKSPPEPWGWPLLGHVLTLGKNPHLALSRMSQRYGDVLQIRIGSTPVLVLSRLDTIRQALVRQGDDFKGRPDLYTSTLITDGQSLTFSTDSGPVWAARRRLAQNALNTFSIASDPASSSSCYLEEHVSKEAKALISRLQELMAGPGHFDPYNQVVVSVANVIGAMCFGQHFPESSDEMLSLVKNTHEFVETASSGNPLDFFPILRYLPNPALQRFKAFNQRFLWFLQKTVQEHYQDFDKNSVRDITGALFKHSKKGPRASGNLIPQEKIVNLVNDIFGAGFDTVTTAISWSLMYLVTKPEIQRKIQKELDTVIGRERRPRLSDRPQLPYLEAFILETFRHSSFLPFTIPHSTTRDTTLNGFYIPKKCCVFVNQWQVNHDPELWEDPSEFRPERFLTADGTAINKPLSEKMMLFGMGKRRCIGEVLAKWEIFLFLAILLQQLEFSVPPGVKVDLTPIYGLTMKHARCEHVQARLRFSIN

CYP2D6 = CYP2D6 (Homo sapiens, UniProt P10635); assay: biochemical
Mtb mc^27000 [2] = assay: microbe, parasite or virus in culture; format: cell-based, Mycobacterium tuberculosis; conditions: for MIC: Mycobacterium tuberculosis, read-out: MIC of the drug alone
M. tuberculosis Erdman [3] = test system: M. tuberculosis Erdman; set-up: species or system Mycobacterium tuberculosis; conditions: in vivo; remark: listed apart in the source
Mtb mc^27000 [4] = assay: microbe, parasite or virus in culture; format: cell-based, Mycobacterium tuberculosis; conditions: for MIC: Mtb mc^27000, liquid medium, 96-well plates
[5] = Microsomal stability assay, mouse liver microsomes; conditions: metabolite identification
Mtb Pks13-TE domain = target: T2, Mtb Pks13-TE domain (Mycobacterium tuberculosis, UniProt I6X8D2); assay: biochemical; conditions: mean ± SD of three independent measurements
T2 construct: The 283 residue long TE domain starting from residue 1451 in full length Pks13; His6 (TEV-cleavable) (N, cleaved yes); made in house; host or cells: E. coli BL21(DE3)pLysS
T2 sequence (I6X8D2 1451-1733 limits assumed): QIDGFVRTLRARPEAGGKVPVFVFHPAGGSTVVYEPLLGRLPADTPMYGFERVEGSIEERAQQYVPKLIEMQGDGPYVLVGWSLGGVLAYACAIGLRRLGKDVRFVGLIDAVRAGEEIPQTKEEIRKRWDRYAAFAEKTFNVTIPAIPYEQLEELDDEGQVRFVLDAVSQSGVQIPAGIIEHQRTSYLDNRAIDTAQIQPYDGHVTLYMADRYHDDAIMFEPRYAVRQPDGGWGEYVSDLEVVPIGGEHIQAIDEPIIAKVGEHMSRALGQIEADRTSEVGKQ

[6] = single drug in the synergy study

Chain of CYP2D6 (P10635 whole entry): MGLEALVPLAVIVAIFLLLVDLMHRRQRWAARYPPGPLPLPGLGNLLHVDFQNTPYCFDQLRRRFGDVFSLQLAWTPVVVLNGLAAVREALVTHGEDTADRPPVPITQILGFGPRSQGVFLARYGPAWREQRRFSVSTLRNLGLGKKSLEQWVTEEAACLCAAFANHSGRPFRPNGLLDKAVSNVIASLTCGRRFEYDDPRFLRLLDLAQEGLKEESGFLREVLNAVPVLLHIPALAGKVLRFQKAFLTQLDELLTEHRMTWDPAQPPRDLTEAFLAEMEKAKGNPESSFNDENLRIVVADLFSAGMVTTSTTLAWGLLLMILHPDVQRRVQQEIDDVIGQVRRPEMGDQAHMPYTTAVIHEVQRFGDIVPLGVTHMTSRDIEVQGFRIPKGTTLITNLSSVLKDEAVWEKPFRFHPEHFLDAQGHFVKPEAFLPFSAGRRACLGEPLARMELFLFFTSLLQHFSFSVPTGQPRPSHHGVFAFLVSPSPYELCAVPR
Chain of CYP2C9 (P11712 whole entry): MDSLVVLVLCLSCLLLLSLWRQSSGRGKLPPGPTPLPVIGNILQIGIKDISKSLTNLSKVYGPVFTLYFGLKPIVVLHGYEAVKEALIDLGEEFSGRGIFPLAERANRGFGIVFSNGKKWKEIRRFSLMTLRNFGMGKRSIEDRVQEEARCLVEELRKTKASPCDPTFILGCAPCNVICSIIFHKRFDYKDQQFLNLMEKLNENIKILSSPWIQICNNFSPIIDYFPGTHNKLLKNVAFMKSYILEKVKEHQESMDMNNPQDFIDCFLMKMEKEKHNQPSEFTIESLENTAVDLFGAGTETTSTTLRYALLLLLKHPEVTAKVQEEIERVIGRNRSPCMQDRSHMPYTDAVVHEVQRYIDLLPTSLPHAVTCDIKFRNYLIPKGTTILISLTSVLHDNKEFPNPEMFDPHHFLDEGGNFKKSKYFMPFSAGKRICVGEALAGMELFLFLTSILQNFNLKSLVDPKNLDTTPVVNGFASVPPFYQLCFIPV

With NNC(=O)c1ccncc1 [INH, Isoniazid] the “lung CFU after 2 weeks of treatment” value (M. tuberculosis H37Rv) was roughly 6.7 log10, the “reduction in lung CFU counts compared with untreated control” value (M. tuberculosis Erdman [1]) was roughly 1.1 log10 and the “reduction in spleen bacterial burden relative to untreated control” value (M. tuberculosis Erdman [1]) was roughly 2.5 log10 CFU.
For Clc1ccc(COC(Cn2ccnc2)c2ccc(Cl)cc2Cl)c(Cl)c1 (centres unmarked) [Miconazole], the IC50 (CYP2C9) was greater than 10000 nM, the IC50 (CYP1A2) was 1100 nM and the IC50 (CYP2D6) was 200 nM.
With CO[C@H]1/C=C/O[C@@]2(C)Oc3c(C)c(O)c4c(O)c(c(/C=N/N5CCN(C)CC5)c(O)c4c3C2=O)NC(=O)/C(C)=C\C=C\[C@H](C)[C@H](O)[C@@H](C)[C@@H](O)[C@@H](C)[C@H](OC(C)=O)[C@@H]1C [RIF, Rifampicin] the “MIC of RIF in combination” value (Mtb mc^27000 [2]) was 0.011 µM, the “improvement of MIC of RIF in combination” value (Mtb mc^27000 [2]) was roughly 3 fold and the MIC (Mtb mc^27000 [2]) was 0.35 µM. For the same compound, the “CFU reduction in lungs compared to untreated control” value (M. tuberculosis Erdman [3]) was roughly 2.4 log10 CFU.
In the case of [H]/N=C(/N)N[C@H]1[C@H](O)[C@@H](O)[C@H](O[C@@H]2O[C@@H](C)[C@](O)(C=O)[C@H]2O[C@@H]2O[C@@H](CO)[C@H](O)[C@@H](O)[C@@H]2NC)[C@@H](N/C(N)=N\[H])[C@@H]1O [SM, Streptomycin], the “MIC of SM in combination” value (Mtb mc^27000 [2]) is reported as 0.037 µM, the “improvement of MIC of SM in combination” value (Mtb mc^27000 [2]) is reported as roughly 2 fold and the MIC (Mtb mc^27000 [2]; [6]) is reported as 0.07 µM.
With CCOC(=O)c1c(-c2ccccc2)oc2ccc(O)c(CN3CCC(C)CC3)c12 [TAM1, ethyl 5-hydroxy-4-[(4-methyl-1-piperidinyl)methyl]-2-phenyl-1-benzofuran-3-carboxylate] the MIC (Mtb mc^27000 [4]; Mycobacterium tuberculosis) was 2.3 µM (≈ 0.905 µg/mL), the “stability in mouse serum” value (Stability in mouse serum) was “cleaved to the inactive acid” and the “metabolism in mouse liver microsomes” value [5] was “hydroxylated”.
Work on CCOC(=O)c1c(-c2ccccc2)oc2ccc(O)c(CN3CCCC(C)C3)c12 (centres unmarked) [TAM2, ethyl 5-hydroxy-4-[(3-methyl-1-piperidinyl)methyl]-2-phenyl-1-benzofuran-3-carboxylate] yielded an MIC (Mtb mc^27000 [4]; Mycobacterium tuberculosis) of 4.4 µM (≈ 1.73 µg/mL) and an IC50 (Mtb Pks13-TE domain) of 120 ± 20 nM.
Work on CCOC(=O)c1c(-c2ccccc2)oc2ccc(O)c(CN3CCCC3)c12.Cl [TAM3, ethyl 5-hydroxy-2-phenyl-4-(1-pyrrolidinylmethyl)-1-benzofuran-3-carboxylate hydrochloride] yielded an MIC (Mtb mc^27000 [4]) of 4.1 µM and an IC50 (Mtb Pks13-TE domain) of 240 ± 20 nM.
Work on CCOC(=O)c1c(-c2ccccc2)oc2ccc(O)c(CN3CCCCCC3)c12.Cl [TAM4, ethyl 4-(1-azepanylmethyl)-5-hydroxy-2-phenyl-1-benzofuran-3-carboxylate hydrochloride] yielded an MIC (Mtb mc^27000 [4]) of 4.6 µM and an IC50 (Mtb Pks13-TE domain) of 280 ± 30 nM.
Work on CCOC(=O)c1c(-c2ccccc2)oc2ccc(O)c(CN3CCOCC3)c12 [TAM5, ethyl 5-hydroxy-4-(4-morpholinylmethyl)-2-phenyl-1-benzofuran-3-carboxylate] yielded an MIC (Mtb mc^27000 [4]; Mycobacterium tuberculosis) of 13.3 µM (≈ 5.07 µg/mL) and an IC50 (Mtb Pks13-TE domain) of 710 ± 50 nM.
Compound CCOC(=O)c1c(-c2ccccc2)oc2ccc(O)c(CN(C)C)c12 [TAM6, ethyl 4-[(dimethylamino)methyl]-5-hydroxy-2-phenyl-1-benzofuran-3-carboxylate] has an MIC (Mtb mc^27000 [4]; Mycobacterium tuberculosis) of 7.3 µM (≈ 2.48 µg/mL) and an IC50 (Mtb Pks13-TE domain) of 1570 ± 150 nM.
With CCOC(=O)c1c(-c2ccccc2)oc2ccc(O)cc12 [TAM7, Ethyl 5-hydroxy-2-phenylbenzofuran-3-carboxylate] the MIC (Mtb mc^27000 [4]; Mycobacterium tuberculosis) was 20 µM (≈ 5.65 µg/mL) and the IC50 (Mtb Pks13-TE domain) was 20000 ± 1900 nM.
CCOC(=O)c1c(-c2ccccc2)oc2ccc(O)c(Cc3ccccc3)c12 [TAM8, Ethyl 4-benzyl-5-hydroxy-2-phenylbenzofuran-3-carboxylate] showed an MIC (Mtb mc^27000 [4]; Mycobacterium tuberculosis) greater than 40 µM and an IC50 (Mtb Pks13-TE domain) of 11900 ± 2300 nM.
With CCOC(=O)c1c(-c2ccccc2)oc2ccc(O)c(CN3CCCCC3)c12 [TAM9, Ethyl 5-hydroxy-2-phenyl-4-(piperidin-1-ylmethyl)benzofuran-3-carboxylate] the MIC (Mtb mc^27000 [4]; Mycobacterium tuberculosis) was 0.4 µM (≈ 0.152 µg/mL), the “Mouse Cli. (intrinsic clearance in mouse liver microsomes)” value was 26.9 mL/min/g and the IC50 (Mtb Pks13-TE domain) was 260 ± 40 nM.
With O=C(O)c1c(-c2ccccc2)oc2ccc(O)c(CN3CCCCC3)c12 [TAM10, 5-hydroxy-2-phenyl-4-(piperidin-1-ylmethyl)benzofuran-3-carboxylic acid] the IC50 (Mtb Pks13-TE domain) was 6600 ± 700 nM.
In the case of CCOC(=O)c1c(-c2ccccc2)oc2ccc(O)c(CC3CCCCC3)c12 [TAM11, Ethyl 4-(cyclohexylmethyl)-5-hydroxy-2-phenylbenzofuran-3-carboxylate], the MIC (Mtb mc^27000 [4]; Mycobacterium tuberculosis) is reported as 5.2 µM (≈ 1.97 µg/mL) and the IC50 (Mtb Pks13-TE domain) is reported as 19600 ± 1400 nM.
In the case of CNC(=O)c1c(-c2ccccc2)oc2ccc(O)c(CN3CCCCC3)c12 [TAM12, 5-hydroxy-N-methyl-2-phenyl-4-(piperidin-1-ylmethyl)benzofuran-3-carboxamide], the “better whole-cell activity than ethyl ester analog TAM9” value (Mtb mc^27000 [4]) is reported as 2 fold, the MIC (Mtb mc^27000 [4]; Mycobacterium tuberculosis) is reported as 0.2 µM (≈ 0.0729 µg/mL) and the “Mouse Cli. (intrinsic clearance in mouse liver microsomes)” value is reported as 50 mL/min/g.
For CCOC(=O)c1c(-c2ccc(O)cc2)oc2ccc(O)c(CN3CCCCC3)c12 [TAM13, Ethyl 5-hydroxy-2-(4-hydroxyphenyl)-4-(piperidin-1-ylmethyl)benzofuran-3-carboxylate], the IC50 (Mtb Pks13-TE domain) was 170 ± 20 nM.
Compound CCOC(=O)c1c(-c2ccccc2)oc2ccc(OC)c(CN3CCCCC3)c12 [TAM14, Ethyl 5-methoxy-2-phenyl-4-(piperidin-1-ylmethyl)benzofuran-3-carboxylate] has an IC50 (Mtb Pks13-TE domain) of 35800 ± 2200 nM.
In the case of CCOC(=O)c1c(-c2ccccc2)oc2cccc(CN3CCCCC3)c12 [TAM15, Ethyl 2-phenyl-4-(piperidin-1-ylmethyl)benzofuran-3-carboxylate], the MIC (Mtb mc^27000 [4]; Mycobacterium tuberculosis) is reported as 16 µM (≈ 5.82 µg/mL) and the IC50 (Mtb Pks13-TE domain) is reported as 2000 ± 100 nM.
In the case of CCOC(=O)c1c(-c2ccc(O)nc2)oc2ccc(O)c(CN3CCCCC3)c12 [TAM17, Ethyl 5-hydroxy-2-(6-hydroxypyridin-3-yl)-4-(piperidin-1-ylmethyl)benzofuran-3-carboxylate], the MIC (Mtb mc^27000 [4]; Mycobacterium tuberculosis) is reported as 4 µM (≈ 1.59 µg/mL) and the IC50 (Mtb Pks13-TE domain) is reported as 360 ± 40 nM.
Work on CNC(=O)c1c(-c2ccc(O)c(F)c2)oc2ccc(O)c(CN3CCCCC3)c12 [TAM18, 2-(3-fluoro-4-hydroxyphenyl)-5-hydroxy-N-methyl-4-(piperidin-1-ylmethyl)benzofuran-3-carboxamide] yielded an MIC (Mtb mc^27000 [4]; Mycobacterium tuberculosis) of 0.5 µM (≈ 0.199 µg/mL) and an IC50 (Mtb Pks13-TE domain) of 330 ± 30 nM.
Compound CNC(=O)c1c(-c2ccc(O)cc2)oc2cc(O)cc(CN3CCCCC3)c12 [TAM19, 6-hydroxy-2-(4-hydroxyphenyl)-N-methyl-4-(piperidin-1-ylmethyl)benzofuran-3-carboxamide] has an MIC (Mtb mc^27000 [4]; Mycobacterium tuberculosis) of 1 µM (≈ 0.38 µg/mL) and an IC50 (Mtb Pks13-TE domain) of 570 ± 30 nM.
For CCOC(=O)c1c(-c2ccccc2)oc2cc(O)cc(CN3CCCCC3)c12 [TAM20, Ethyl 6-hydroxy-2-phenyl-4-(piperidin-1-ylmethyl)benzofuran-3-carboxylate], the MIC (Mtb mc^27000 [4]; Mycobacterium tuberculosis) was 1.1 µM (≈ 0.417 µg/mL) and the IC50 (Mtb Pks13-TE domain) was 450 ± 40 nM.
For CCOC(=O)c1c(-c2ccccc2)oc2ccc(O)c(CN3CCCC(CO)C3)c12 (centres unmarked) [TAM21, Ethyl 5-hydroxy-4-((3-(hydroxymethyl)piperidin-1-yl)methyl)-2-phenylbenzofuran-3-carboxylate], the MIC (Mtb mc^27000 [4]; Mycobacterium tuberculosis) was 10 µM (≈ 4.09 µg/mL) and the IC50 (Mtb Pks13-TE domain) was 420 ± 40 nM.
In the case of CCOC(=O)c1c(-c2ccccc2)oc2ccc(O)c(CN3CCCCC3CO)c12 (centres unmarked) [TAM22, Ethyl 5-hydroxy-4-((2-(hydroxymethyl)piperidin-1-yl)methyl)-2-phenylbenzofuran-3-carboxylate], the MIC (Mtb mc^27000 [4]; Mycobacterium tuberculosis) is reported as greater than 10 µM and the IC50 (Mtb Pks13-TE domain) is reported as greater than 10000 nM.
Work on CCOC(=O)c1c(-c2ccc(O)cc2)oc2ccc(O)c(CN3CCCC(CO)C3)c12 (centres unmarked) [TAM23, Ethyl 5-hydroxy-4-((3-(hydroxymethyl)piperidin-1-yl)methyl)-2-(4-hydroxyphenyl)benzofuran-3-carboxylate] yielded an MIC (Mtb mc^27000 [4]; Mycobacterium tuberculosis) of 2.5 µM (≈ 1.06 µg/mL) and an IC50 (Mtb Pks13-TE domain) of 380 ± 10 nM.
Compound CNC(=O)c1c(-c2ccccc2)oc2ccc(O)c(CN3CCCC(CO)C3)c12 (centres unmarked) [TAM24, 5-Hydroxy-4-((3-(hydroxymethyl)piperidin-1-yl)methyl)-N-methyl-2-phenylbenzofuran-3-carboxamide] has an MIC (Mtb mc^27000 [4]; Mycobacterium tuberculosis) of 0.5 µM (≈ 0.197 µg/mL) and an IC50 (Mtb Pks13-TE domain) of 2100 ± 300 nM.
For COc1nc2ccc(Br)cc2cc1[C@@H](c1ccccc1)[C@@](O)(CCN(C)C)c1cccc2ccccc12 [TMC207, Bedaquiline], the “MIC of TMC207 in combination” value (Mtb mc^27000 [2]) was 0.005 µM, the “improvement of MIC of TMC207 in combination” value (Mtb mc^27000 [2]) was 2.6 fold and the MIC (Mtb mc^27000 [2]; [6]) was 0.013 µM.
